Source: US6362207B1, “Methods of treating viral infections with benzimidazoles” (priority 1995, dated 2002)
Where two headings read alike, the source gives them in different places.

How the values were obtained:
[1] = tested on: P388; assay: P-388 model for leukemia, T/C; format: in vivo, mice
Source text: In the P-388 model for leukemia there was a dose responsive effect and the results were good.
The NCI Measure of Success is T/C=125.

[2] = tested on: MX1 breast cancer tumors implanted subcutaneously; assay: Tumor growth reduction in mice models (Table 5), breast; format: in vivo
[3] = tested on: lung; format: in vivo; conditions: A549-lung, positive control 125 mg/kg
[4] = format: in vivo
Source text: Additional in vivo cancer studies are presented in a tabular form below. The data is presented in the following format—dose regimen in parenthesis, dosage in mg/kg: tumor growth suppression (tg supp.), toxic deaths/number of test subjects (deaths), % weight change (wt).

[5] = tested on: B-16 mouse melanoma
Protocol: The data in Tables 1, 2 and 3 are reported in T/C which is interpreted using the following scale:
long term survivors for P388 is >30 days, for B16 it is >60 days. The NCI Measure of Success is T/C=125.
This study was performed in black mice injected i.p. with B-16 mouse melanoma which many researchers believe is the most predictive model for efficacy in humans. […] Death is the end point in this model.

[6] = tested on: MCF-7L breast line; assay: MCF-7L breast line study versus Navelbine and Taxol, tumor weight; format: in vivo, mice; conditions: 16 mg/kg qd×5 i.p., carbendazim treatment begun on day 130; c1-c4 = day 236, 239, 245, 249
[7] = tested on: HIV; assay: microbe, parasite or virus in culture; format: cell-based
[8] = tested on: HIV-1 in U1 cells (promonocytic, from U937); assay: Additional chronic HIV studies, monocytes; format: cell-based
Protocol: (§1) Chronic HIV-1 infected cells U1 were derived from an acute HIV-1 infection of the promonocytic cell line, U937. The chronic HIV-1 infected cells, ACH-2 were derived from an acute HIV-1 infection of the T cell line, A3.01.
(§2) These cells were cultured in medium and the phorbol ester, PMA. PMA causes the cells (both U1 and ACH-2) to be activated and not divide but it also causes the U-1 cells to differentiate. […] Cell viability was measured when these cell lines were treated with the test compound.
(§3) Both cell lines constituitively produce a small amount of HIV-1. ACH-2 cell lines tend to produce more HIV-1 than U1 cells as shown by p24 ELISA. When either cell line is cultured in the presence of PMA there is an increase in the quantity of HIV-1 produced as measured by the p24 antigen ELISA.
(§4) In addition, the number of […] positive HIV mRNA expressing cells per microscopic field is measured. Comparisons can be made from these numbers since the same number of cells were adhered to the glass slides for each drug concentration 10×10^6 cells/ml).
(§5) These cells were treated with test samples. […] The positive control was interferon which suppressed HIV monocytes replication by 80%.

[9] = tested on: herpes; assay: In vivo herpes screening test; design: species or system mice
Protocol: The positive control was acyclovir at 75 mg/kg dose; 60% of the mice survived with a mean death date of 17.2 days.

[10] = tested on: colon; assay: Tumor growth reduction in mice models (Tables 5 and 6), colon; format: in vivo; conditions: HT29-colon, positive control 4 mg/kg
[11] = given for perspective; cited from earlier work
[12] = tested on: influenza; assay: In vivo model for influenza; design: species or system mice
Protocol: The positive control was amantadine (75 mg/kg) with 100% of the mice surviving for 21 days. 2-(Methoxycarbonylamino)benzimidazole was not active in the same test.

[13] = tested on: rhinovirus; assay: In vitro rhinovirus model; format: cell-based
[14] = tested on: A549 lung tumor cells; assay: MTT cell viability test, lung tumor cells; format: cell-based, human; conditions: for EC-50 Result: MTT, 5 day incubation; for Optical Density: A-549, control 0.600
[15] = tested on: MX1 breast cells; assay: MTT cell viability test, breast tumor cells; format: cell-based, human; conditions: 5 day incubation
[16] = tested on: HT29 colon tumor cells; assay: MTT cell viability test, colon tumor cells; format: cell-based, human; conditions: for EC-50 Result: MTT, 5 day incubation; for Optical Density: HT-29, control 0.398
[17] = tested on: HIV, chronically infected cells; assay: Virus Resistance Studies; format: cell-based; conditions: cultures treated at 40 and 80 μg/ml
[18] = tested on: breast tumor cells (MCF-7); assay: Related study of tumor cell killing (optical density); format: cell-based; conditions: control 0.245
Source text: In a related study using lung tumor cells (A-549) breast tumor cells (MCF-7) and colon tumor cells (HT-29), thiabeadazole effectively killed these cells.

[19] = tested on: Human Tumor Colony Forming Units; assay: In Vitro Human Tumor Colony Forming Units Test
[20] = tested on: influenza; assay: In vitro influenza model; format: cell-based
[21] = tested on: herpes; assay: In vitro herpes model; format: cell-based
[22] = tested on: HIV-1 in ACH-2 cells (T cell line A3.01); assay: Additional chronic HIV studies, T cells; format: cell-based; conditions: 60 μg/ml
Protocol: as §1, §2, §3, §4, §5

[23] = tested on: HIV, pretreated chronically infected cells; format: cell-based; conditions: irrespective of the culture conditions
[24] = tested on: HIV-1 (CEM-SK1, U937-SK1, H9-SK1, U1 and ACH2 cells); assay: HIV Virus Replication Study in chronically infected cells; format: cell-based
Protocol: Thiabendazole was tested in chronically infected HIV virus. These cell populations contain integrated copies of the HIV genome and constituitively produce HIV at relatively high levels (CEM-SK1, U937-SK1 and H9-SK1 from Frederick Research Center, Maryland) or are latently infected and only produce virus after stimulation with phorbol esters, tumor necrosis factor or IL6 (U1 and ACH2).
Toxicity to the chronically infected cells was similar to that observed with the uninfected cells.
After 28 days of treatment on chronically infected cells, the toxicity of the compound to the target cells appeared similar in both uninfected and chronically infected cells.
This reduction of virus production occurs at concentrations which are nontoxic to the host cell and which have no effect on the synthesis of cellular DNA, RNA and protein.

[25] = tested on: HIV, chronically infected cells; assay: Reappearance of virus production from chronically infected cells previously treated; format: cell-based
[26] = positive control, 300 mg/kg on dose
[27] = A549 (lung), positive control 125 mg/kg
[28] = DU-145, positive control 300 mg/kg, 1 dose
[29] = HT29 (colon), positive control 300 mg/kg, 1 dose
[30] = MCF-7L (breast), positive control 300 mg/kg, 1 dose
[31] = MX1 xenograft, positive control 300 mg/kg, 1 dose
[32] = SK-MES, positive control 20 mg/kg, 5 doses
[33] = SK-MES, positive control 2 mg/kg, 5 doses

## O=P1(N(CCCl)CCCl)NCCCO1 (stereo not shown) [Cytoxan, reference compound]
[1]; P388-luekemia, positive control (125)
  increased life span, Positive Control: curative
[1]; [26]
  T/C: 191
  weight change: −8.43%
[2]; MXI-breast, positive control 125 mg/kg
  Tumor Growth Decrease: regression
[3]
  Tumor Growth Decrease: 69%
[4]; [27]
  % weight change (wt): −1%
  toxic deaths/number of test subjects (deaths): 0/10
  tumor growth suppression (tg supp.): 69%
[4]; [28]
  % weight change (wt): +6%
  toxic deaths/number of test subjects (deaths): 0/10
  tumor growth suppression (tg supp.): 0%
[4]; [29]
  % weight change (wt): +10%
  toxic deaths/number of test subjects (deaths): 0/10
  tumor growth suppression (tg supp.): 45%
[4]; [30]
  % weight change (wt): −15%
  toxic deaths/number of test subjects (deaths): 3/10
  tumor growth suppression (tg supp.): 100%
[4]; [31]
  % weight change (wt): −7%
  toxic deaths/number of test subjects (deaths): 0/10
  tumor growth suppression (tg supp.): complete
[5]; [26]
  T/C: 191
  weight change: −8.43%

## CC(=O)O[C@H]1C(=O)[C@@]2(C)[C@H]([C@H](OC(=O)c3ccccc3)[C@]3(O)C[C@H](OC(=O)[C@H](O)[C@@H](NC(=O)c4ccccc4)c4ccccc4)C(C)=C1C3(C)C)[C@]1(OC(C)=O)CO[C@@H]1C[C@@H]2O [Taxol]
[4]; [32]
  % weight change (wt): +1%
  toxic deaths/number of test subjects (deaths): 0/10
  tumor growth suppression (tg supp.): 75%
[6]
  tumor weight: 0 mg

## Cc1cn([C@H]2C[C@H](N=[N+]=[N-])[C@@H](CO)O2)c(=O)[nH]c1=O [AZT, reference compound]
[7]; 1 μg/ml
  inhibition of viral replication: 98%
[8]; chronic HIV model
  activity in this model: no activity

## Nc1nc2c(ncn2COCCO)c(=O)[nH]1 [acyclovir, reference compound]
[9]; 75 mg/kg
  mean death date: 17.2 days
  mice survived: 60%

## N.N.[Cl][Pt][Cl] [cis-plat]
[10]
  Tumor Growth Decrease: 59%

## [Cl-].[Na+] [table salt]
[11]
  LD50: 3750 mg/kg

## NC12CC3CC(CC(C3)C1)C2 [amantadine, reference compound]
[12]; 75 mg/kg, for 21 days
  mice surviving: 100%

## COc1ccc2nc(C(O)C(O)c3nc4ccc(OC)cc4[nH]3)[nH]c2c1 (stereo not shown) [A36683, reference compound]
[13]
  therapeutic index (TI), ratio of toxic dose to efficacious dose: 1000-3200

## CCC1=C[C@@H]2CN(C1)Cc1c([nH]c3ccccc13)[C@@](C(=O)OC)(c1cc3c(cc1OC)N(C)[C@H]1[C@@](O)(C(=O)OC)[C@H](OC(C)=O)[C@]4(CC)C=CCN5CC[C@]31[C@@H]54)C2 [Navelbine]
[4]; [33]
  % weight change (wt): −5%
  toxic deaths/number of test subjects (deaths): 1/10
  tumor growth suppression (tg supp.): 26%
[5]; B16 melanoma, positive control (2)
  increased life span, Positive Control: 265%

## CCCCNC(=O)n1c(NC(=O)OC)nc2ccccc21 [benomyl]
[14]; A549, first column
  EC-50 Result: 0.980 ppm
[14]; A549, second column
  EC-50 Result: 1.02 ppm
[15]; MX1, first column
  EC-50 Result: 1.42 ppm
[15]; MX1, second column
  EC-50 Result: 2.42 ppm
[16]; HT29, first column
  EC-50 Result: 0.742 ppm
[16]; HT29, second column
  EC-50 Result: 0.747 ppm

## COc1cccc2c1C(=O)c1c(O)c3c(c(O)c1C2=O)C[C@@](O)(C(=O)CO)C[C@@H]3O[C@H]1C[C@H](N)[C@H](O)[C@H](C)O1 [Adriamycin, reference compound]
[14]; A549, first column
  EC-50 Result: 0.03 ppm
[14]; A549, second column
  EC-50 Result: 0.009 ppm
[15]; MX1, first column
  EC-50 Result: 0.02 ppm
[15]; MX1, second column
  EC-50 Result: 0.001 ppm
[16]; HT29, first column
  EC-50 Result: 0.03 ppm
[16]; HT29, second column
  EC-50 Result: 0.006 ppm

## c1ccc2[nH]c(-c3cscn3)nc2c1 [thiabendazole, 2-(4-thiazolyl)-1-H-benzimidazole]
[17]
  virus production: totally suppressed
[1]; mouse, in vivo
  activity against P388: no activity
[18]; 0.87 ppm
  Optical Density: 0.507
[18]; 3.46 ppm
  Optical Density: 0.466
[18]; 17.3 ppm
  Optical Density: 0.258
[18]; 35 ppm
  Optical Density: 0.025
[18]; 173 ppm
  Optical Density: 0.007
[2]; implanted subcutaneously under the mice skin
  activity against MX1 breast cancer tumors: no activity
[7]; Human immunodeficiency virus 1, 60 μg/ml, read-out: inhibition of viral replication
  inhibition at 60 µg/mL: 98%
[19]; 1 Hour Exposure, 0.5 μg/ml
  positive results / tumors tested: 0/3
[19]; 1 Hour Exposure, 5.0 μg/ml
  positive results / tumors tested: 0/3
[19]; 1 Hour Exposure, 50.0 μg/ml
  positive results / tumors tested: 0/3
[19]; Continuous Exposure, 0.5 μg/ml
  positive results / tumors tested: 1/10
[19]; Continuous Exposure, 5.0 μg/ml
  positive results / tumors tested: 2/10
[19]; Continuous Exposure, 50.0 μg/ml
  positive results / tumors tested: 7/10
[8]; 60 μg/ml
  suppression of replication in the HIV monocytes: 74%
[12]; 100 mg/kg
  mean death date: 8.7 days
  mice survived: 62%
[12]; 200 mg/kg
  mean death date: 8 days
  mice survived: 67%
[20]
  activity: no activity
[21]
  activity: no activity
[22]
  increase of T-cell HIV replication: 26%
[9]; 100 mg/kg
  mean death date: 9.2
  mice survived: 50%
[9]; 200 mg/kg
  mean death date: 10.4
  mice survived: 10%
[14]; 0.87 ppm
  Optical Density: 1.32
[14]; 3.46 ppm
  Optical Density: 1.12
[14]; 17.3 ppm
  Optical Density: 0.851
[14]; 35 ppm
  Optical Density: 0.411
[14]; 173 ppm
  Optical Density: 0.007
[23]
  virus production from pretreated cell populations, Groups 1-3: identical
[5]; mouse, in vivo
  activity against B16: no activity
[24]; after 28 days of treatment
  concentration at which stable reductions in virus production were observed: greater than 10 μg/ml
[24]; chronically infected cells
  concentrations that inhibited virus production: 1 to 10 µg/mL
[16]; 0.87 ppm
  Optical Density: 0.852
[16]; 3.46 ppm
  Optical Density: 0.713
[16]; 17.3 ppm
  Optical Density: 0.204
[16]; 35 ppm
  Optical Density: 0.011
[16]; 173 ppm
  Optical Density: 0.005
[25]; 40 μg/ml
  day by which virus production resumed after washing free of compound: ≤ 12 days
[25]; highest concentrations
  day at which virus production was observed after washing free of compound: ~70 days
[25]; lower concentrations (20 μg/ml and 4 μg/ml)
  time until virus production resumed after washing free of compound: ≤ 4 days
